Laboratory results published in US12203124B2, “Methods for improved rapid antimicrobial susceptibility testing” (priority 2016, dated 2025).

System: Bacteria
Experiment: Bacterial growth with or without resazurin during incubation, BacTiter-Glo luminescence
Format: cell-based
Conditions: 4 hours at 35° C., versus resazurin added after incubation
Procedure: FIG. 1 illustrates growth luminescence ratios post-incubation of microogranisms, where resazurin was introduced to one group of microorganisms before the initial incubation period and the other group was introduced to resazurin after the initial incubation period.
Bacteria were inoculated into 96-well microplates comprise cation-adjusted Mueller Hinton broth in the presence and absence of resazurin (alamarBlue®) and incubated at 35° C. for 4 hours. For wells that were not incubated with resazurin, the growth indicator was added immediately after the 4-hour incubation. BacTiter-Glo reagent (Promega, Madison, WI) was added to all wells and luminescence was measured. […] Thus, it can be advantageous to remove growth indicator from test wells during incubation.

SMILES: O=c1ccc2[n+]([O-])c3ccc(O)cc3oc-2c1 [resazurin, 7-hydroxy-10-oxidophenoxazin-10-ium-3-one]
- Effect of resazurin present during incubation on viable bacteria (BacTiter-Glo luminescence): less luminescent signal was observed
